Results as given in patent EP0025528A1, “1-(2-Acetylphenylthio)-3-alkylamino-2-propanols and their acid-addition salts, process for their preparation and medicines containing them” (A. Nattermann & Cie. GmbH, priority 1979, dated 1981).
Like-named read-outs stand apart in the source and are kept apart here.

Key:
Narkotisierte Katze = assay: Anaesthetised cat: inhibition of isoprenaline-induced tachycardia (competitive ß-adrenergic antagonism in vivo); design: species or system Katzen; conditions: Felis catus, read-out: ED50 Hemmung der Isoprenalin-induzierten Herzfrequenzsteigerung
Description: Zum Nachweis des kompetitiven ß-adrenergischen Antagonismus in vivo wurden mischrassige Katzen beiderlei Geschlechts und in Chloralose-Pentobarbitalnarkose verwendet. […] Die Registrierung erfolgte über ein Stathamelement aus einem Beckman Dynograph Typ R. Aus der Blutdruckamplitude wurde mit Hilfe eines Kardiotachometers die Herzfrequenz abgenommen und auf einem weiteren Kanal des Dynographen aufgezeichnet. Die Applikation der Testlösungen erfolgte über einen Katheter in die linke Vena femoralis. Es wurde die inhibierende Wirkung ansteigender Testsubstanz-Dosen auf die durch i.v.Gabe von 0,5 gg Isoprenalin/kg Körpergewicht induzierte Tachykardie bzw. Hypotonie (Blutdrucksenkung) geprüft. Als ED50-Werte wurden in der Tabelle die Dosen der Referenz- bzw. erfindungsgemäßen Verbindung eingetragen, die die Isoprenalineffekte jeweils auf die Hälfte reduzierten.

Reserpinisierte Ratte = assay: Intrinsic sympathomimetic activity (ISA) in reserpinised anaesthetised rat; type: in vivo, Wistar-Ratten; conditions: intravenous; maximal heart-rate increase (mean of 6 animals) relative to 1,0 µg Isoprenalin/kg i.v.; reserpine 5 mg/kg i.p. 24 h before
Method: Die Tiere bekamen 24 Stunden vor Versuchsbeginn 5 mg Reserpin/kg intraperitoneal. Die Herzfrequenz wurde aus der Blutdruckamplitude (Polyäthylenkatheter mit aufgesetztem Stathamelement in der rechten Arteria femoralis) mit Hilfe eines Kardiotachometers abgenommen und auf einem Schreiber fortlaufend registriert. Die Applikation der Testlösungen erfolgte über einen Katheter in der linken Vena femoralis. Es wurden von jeder Testverbindung vier ansteigende Dosen getrennt jeweils an sechs verschiedenen Tieren geprüft.
Die maximale Steigerung der Herzfrequenz (Mittelwert aus 6 Tieren) durch die einzelnen Testverbindungen wurde als Maß für ihre agonistische Aktivität genommen und in Prozent der Frequenzsteigerung durch 1,0 µg Isoprenalin/kg Körpergewicht i.v. errechnet.

in vivo = conditions: for LD50 at 168 h: mouse
Description: Die akute Toxizität wurde an NMRI-Mäusen durch intravenöse bzw. orale Gabe von steigenden Dosen der erfindungsgemäßen Verbindung ermittelt.

[1] = intravenous, cat under chloralose-pentobarbital anaesthesia, isoprenaline 0,5 gg/kg i.v., dose halving the isoprenaline effect

SMILES	ED50 (Narkotisierte Katze; [1]) [mg/kg]	ß-sympathomimetische Eigenaktivität (ISA) in % der sympathomimetischen Aktivität von Isoprenalin (Reserpinisierte Ratte) [%]	selectivity ratio (in vivo; iv)	LD50 at 168 h (in vivo; iv) [mg/kg]	LD50 at 168 h (in vivo; po) [mg/kg]	ED50 (Narkotisierte Katze; iv) [mg/kg]
CC(=O)c1ccccc1SCC(O)CNC(C)(C)C (racemic) [Beispiel 1, 1-(2-Acetylphenylthio)-3-tert.-butyl-amino-2-propanol]	0.044	33	2520	111	667	–
CC(=O)Nc1ccc(OCC(O)CNC(C)C)cc1 (centres unmarked) [Practolol]	0.144	54	1030	148	–	–
CC(C)NCC(O)COc1cccc2ccccc12 (centres unmarked) [Propranolol]	–	0	–	–	–	0.017
